Assay results from PubChem BioAssay (NCI).
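48-hour exposure; five concentrations; linearly interpolated endpoints. GI50 is the concentration that inhibits growth by half. TGI: concentration producing complete growth inhibition.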

Key:
Test in all cases: NCI-60 cell line screen, 48 h
IGROV1 ovarian = system: IGROV1 ovarian
SF-268 CNS = system: SF-268 CNS
ACHN renal = system: ACHN renal
U251 CNS = system: U251 CNS
TK-10 renal = system: TK-10 renal
RPMI-8226 leukemia = system: RPMI-8226 leukemia
CAKI-1 renal = system: CAKI-1 renal
SF-295 CNS = system: SF-295 CNS
HCT-116 colon = system: HCT-116 colon
M14 melanoma = system: M14 melanoma
HCT-15 colon = system: HCT-15 colon
HOP-62 NSCLC = system: HOP-62 NSCLC
DU-145 prostate = system: DU-145 prostate
MDA-MB-468 breast = system: MDA-MB-468 breast
OVCAR-5 ovarian = system: OVCAR-5 ovarian
SN12C renal = system: SN12C renal
HCC-2998 colon = system: HCC-2998 colon
K-562 leukemia = system: K-562 leukemia
NCI-H460 lung = system: NCI-H460 lung
SNB-75 CNS = system: SNB-75 CNS
MDA-MB-435 = system: MDA-MB-435
HT29 colon = system: HT29 colon
MOLT-4 leukemia = system: MOLT-4 leukemia
NCI-H226 lung = system: NCI-H226 lung
MCF7 breast = system: MCF7 breast
CCRF-CEM leukemia = system: CCRF-CEM leukemia
786-0 renal = system: 786-0 renal
OVCAR-4 ovarian = system: OVCAR-4 ovarian
BT-549 breast = system: BT-549 breast
KM12 colon = system: KM12 colon
MDA-MB-231 breast = system: MDA-MB-231 breast
OVCAR-3 ovarian = system: OVCAR-3 ovarian
SK-MEL-5 melanoma = system: SK-MEL-5 melanoma
HL-60(TB) leukemia = system: HL-60(TB) leukemia
UACC-257 melanoma = system: UACC-257 melanoma
SW-620 colon = system: SW-620 colon
SF-539 CNS = system: SF-539 CNS
HOP-92 NSCLC = system: HOP-92 NSCLC
SK-MEL-28 melanoma = system: SK-MEL-28 melanoma
SK-MEL-2 melanoma = system: SK-MEL-2 melanoma
PC-3 prostate = system: PC-3 prostate
UO-31 renal = system: UO-31 renal
NCI-H522 lung = system: NCI-H522 lung
HS 578T breast = system: HS 578T breast
RXF 393 renal = system: RXF 393 renal
MALME-3M melanoma = system: MALME-3M melanoma
A498 renal = system: A498 renal
SR leukemia = system: SR leukemia
LOX IMVI melanoma = system: LOX IMVI melanoma
UACC-62 melanoma = system: UACC-62 melanoma
T-47D breast = system: T-47D breast
SK-OV-3 ovarian = system: SK-OV-3 ovarian
COLO 205 colon = system: COLO 205 colon
NCI-H23 lung = system: NCI-H23 lung
A549 NSCLC = system: A549 NSCLC
EKVX NSCLC = system: EKVX NSCLC
OVCAR-8 ovarian = system: OVCAR-8 ovarian
SNB-19 CNS = system: SNB-19 CNS

Molecule `O=C1Nc2ccc(Cl)cc2/C1=C/c1cccc(OCc2ccccc2)c1` has a GI50 (IGROV1 ovarian) of 12.3 µM, a TGI (IGROV1 ovarian) of 61.2 µM and a GI50 (SF-268 CNS) of 14.6 µM. For the same molecule, the TGI (SF-268 CNS) was 49.4 µM, the GI50 (ACHN renal) was 15 µM and the TGI (ACHN renal) was 37.3 µM. The GI50 (U251 CNS) was 14.8 µM, the TGI (U251 CNS) was 55.4 µM and the GI50 (TK-10 renal) was 56.1 µM. For the same molecule, the TGI (TK-10 renal) was > 100 µM, the GI50 (RPMI-8226 leukemia) was 7.46 µM and the TGI (RPMI-8226 leukemia) was 36.7 µM. The GI50 (CAKI-1 renal) was 10.8 µM, the TGI (CAKI-1 renal) was 32 µM and the GI50 (SF-295 CNS) was 37 µM. For the same molecule, the TGI (SF-295 CNS) was > 100 µM, the GI50 (HCT-116 colon) was 10.7 µM and the TGI (HCT-116 colon) was > 100 µM. For the same molecule, the GI50 (M14 melanoma) was 19.5 µM, the TGI (M14 melanoma) was > 100 µM and the GI50 (HCT-15 colon) was 9.4 µM. It also gave a TGI (HCT-15 colon) of 94.6 µM, a GI50 (HOP-62 NSCLC) of 25.6 µM and a TGI (HOP-62 NSCLC) of 79.8 µM. It also gave a GI50 (DU-145 prostate) of 17 µM, a TGI (DU-145 prostate) of 45.3 µM and a GI50 (MDA-MB-468 breast) of 6.52 µM. For the same molecule, the TGI (MDA-MB-468 breast) was 67.5 µM, the GI50 (OVCAR-5 ovarian) was 27.5 µM and the TGI (OVCAR-5 ovarian) was > 100 µM. It also gave a GI50 (SN12C renal) of 20.5 µM, a TGI (SN12C renal) of 88.8 µM and a GI50 (HCC-2998 colon) of 41.2 µM. For the same molecule, the TGI (HCC-2998 colon) was > 100 µM, the GI50 (K-562 leukemia) was 11 µM and the TGI (K-562 leukemia) was 37.8 µM. For the same molecule, the GI50 (NCI-H460 lung) was 14 µM, the TGI (NCI-H460 lung) was 37.9 µM and the GI50 (SNB-75 CNS) was 16.7 µM. For the same molecule, the TGI (SNB-75 CNS) was 56 µM, the GI50 (MDA-MB-435) was 24 µM and the TGI (MDA-MB-435) was 98.8 µM. For the same molecule, the GI50 (HT29 colon) was 37.8 µM, the TGI (HT29 colon) was > 100 µM and the GI50 (MOLT-4 leukemia) was 4.96 µM. The TGI (MOLT-4 leukemia) was 23.6 µM, the GI50 (NCI-H226 lung) was 14.1 µM and the TGI (NCI-H226 lung) was 84.6 µM. It also gave a GI50 (MCF7 breast) of 3.9 µM, a TGI (MCF7 breast) of 75.1 µM and a GI50 (CCRF-CEM leukemia) of 11.2 µM. For the same molecule, the TGI (CCRF-CEM leukemia) was 32.1 µM, the GI50 (786-0 renal) was 14.1 µM and the TGI (786-0 renal) was 32.6 µM. It also gave a GI50 (OVCAR-4 ovarian) of 11.8 µM, a TGI (OVCAR-4 ovarian) of 63.2 µM and a GI50 (BT-549 breast) of 14.3 µM. The TGI (BT-549 breast) was 66.1 µM, the GI50 (KM12 colon) was 20.1 µM and the TGI (KM12 colon) was > 100 µM. It also gave a GI50 (MDA-MB-231 breast) of 15.3 µM, a TGI (MDA-MB-231 breast) of 37.9 µM and a GI50 (OVCAR-3 ovarian) of 12.4 µM. For the same molecule, the TGI (OVCAR-3 ovarian) was 31.7 µM, the GI50 (SK-MEL-5 melanoma) was 28.1 µM and the TGI (SK-MEL-5 melanoma) was > 100 µM. For the same molecule, the GI50 (HL-60(TB) leukemia) was 13.3 µM, the TGI (HL-60(TB) leukemia) was 57.8 µM and the GI50 (UACC-257 melanoma) was 53.8 µM. The TGI (UACC-257 melanoma) was > 100 µM, the GI50 (SW-620 colon) was 19.9 µM and the TGI (SW-620 colon) was 75.9 µM. The GI50 (SF-539 CNS) was 18.5 µM, the TGI (SF-539 CNS) was 48.6 µM and the GI50 (HOP-92 NSCLC) was 2.16 µM. It also gave a TGI (HOP-92 NSCLC) of 13.4 µM, a GI50 (SK-MEL-28 melanoma) of 16.5 µM and a TGI (SK-MEL-28 melanoma) of 44.3 µM. The GI50 (SK-MEL-2 melanoma) was 31.2 µM, the TGI (SK-MEL-2 melanoma) was > 100 µM and the GI50 (PC-3 prostate) was 14.9 µM. For the same molecule, the TGI (PC-3 prostate) was 82 µM, the GI50 (UO-31 renal) was 7.91 µM and the TGI (UO-31 renal) was > 100 µM. For the same molecule, the GI50 (NCI-H522 lung) was 24 µM, the TGI (NCI-H522 lung) was > 100 µM and the GI50 (HS 578T breast) was 16 µM. For the same molecule, the TGI (HS 578T breast) was 72.9 µM, the GI50 (RXF 393 renal) was 18.4 µM and the TGI (RXF 393 renal) was 95.9 µM. It also gave a GI50 (MALME-3M melanoma) of 21.1 µM, a TGI (MALME-3M melanoma) of 64.7 µM and a GI50 (A498 renal) of 38 µM. The TGI (A498 renal) was > 100 µM, the GI50 (SR leukemia) was 5.66 µM and the TGI (SR leukemia) was 21.8 µM. The GI50 (LOX IMVI melanoma) was 10.2 µM, the TGI (LOX IMVI melanoma) was 40.4 µM and the GI50 (UACC-62 melanoma) was 8.87 µM. The TGI (UACC-62 melanoma) was 35.4 µM, the GI50 (T-47D breast) was 16.1 µM and the TGI (T-47D breast) was > 100 µM. For the same molecule, the GI50 (SK-OV-3 ovarian) was 59 µM, the TGI (SK-OV-3 ovarian) was > 100 µM and the GI50 (COLO 205 colon) was 37.4 µM. For the same molecule, the TGI (COLO 205 colon) was > 100 µM, the GI50 (NCI-H23 lung) was 22 µM and the TGI (NCI-H23 lung) was > 100 µM. The GI50 (A549 NSCLC) was 18.3 µM, the TGI (A549 NSCLC) was > 100 µM and the GI50 (EKVX NSCLC) was 20.5 µM. For the same molecule, the TGI (EKVX NSCLC) was > 100 µM, the GI50 (OVCAR-8 ovarian) was 20.2 µM and the TGI (OVCAR-8 ovarian) was 61.8 µM. For the same molecule, the GI50 (SNB-19 CNS) was 17.9 µM and the TGI (SNB-19 CNS) was 58.8 µM.

Molecule `CCn1nc(-c2ccc(C(=O)OC)cc2)nc2c(=O)n(C)c(=O)nc1-2` has a GI50 (MDA-MB-468 breast) of 0.189 µM and a TGI (MDA-MB-468 breast) of 0.477 µM.

For `CN1C[C@@H](c2ccc(Cl)cc2)[C@]2(NC(=S)N(c3ccc(F)c(Cl)c3)C2=O)[C@@]12C(=O)NC1C=CC(Cl)=C[C@H]12` (stereo not given in full), the GI50 (MDA-MB-468 breast) was 3.38 µM and the TGI (MDA-MB-468 breast) was 12.9 µM.

Molecule `O=C(NC1CCCCC1)OCc1c(COC(=O)NC2CCCCC2)c(-c2ccc(Cl)c(Cl)c2)n2c1CCC2` has a GI50 (MDA-MB-468 breast) of 1.8 µM and a TGI (MDA-MB-468 breast) of 10.9 µM.

Work on `N#C/C(=C1C=C/C(=N/O)C(Cl)=C/1)c1ccc(Cl)cc1` yielded a GI50 (MDA-MB-468 breast) of 3 µM and a TGI (MDA-MB-468 breast) of 9.7 µM.

Molecule `CC(C)N(Cc1c(F)cccc1F)c1ccc(CO)c(Cl)c1` has a GI50 (MDA-MB-468 breast) of 0.0187 µM and a TGI (MDA-MB-468 breast) of 0.0531 µM.

`COc1ccc(C2=C(c3cn(C)c4ccccc34)C(=O)OC2)cc1OC` was tested, and the GI50 (MDA-MB-468 breast) was 1.65 µM and the TGI (MDA-MB-468 breast) was > 100 µM.

For `COc1cc2c(cc1O)CC[C@@H]1[C@@H]2CC[C@]2(C)[C@@H](OCCCN(C)C)CC[C@@H]12`, the GI50 (MDA-MB-468 breast) was 0.12 µM and the TGI (MDA-MB-468 breast) was 0.3 µM.
